Measurements taken from article PMC8153946, “Substrate Selectivity of Coumarin Derivatives by Human CYP1 Enzymes: In Vitro Enzyme Kinetics and In Silico Modeling” (ACS Omega, 2021).

Key:
Format in all cases: biochemical
human CYP1B1 = target: T1, human CYP1B1 (Homo sapiens, UniProt Q16678); experiment: Michaelis–Menten kinetics of oxidation to fluorescent 7-hydroxy metabolite by recombinant CYP1B1; parameters: key to screening activity class: NA, no activity was observed.; LA, low screening activity at the 20 μM substrate and 25 nM CYP concentration; conditions: for screening activity class: CYP1B1, 20 μM substrate and 25 nM CYP
T1 construct: purchased BD Biosciences Discovery Labware (Woburn, MA, USA); host or cells: baculovirus-insect cells
T1 sequence (Q16678 1-543): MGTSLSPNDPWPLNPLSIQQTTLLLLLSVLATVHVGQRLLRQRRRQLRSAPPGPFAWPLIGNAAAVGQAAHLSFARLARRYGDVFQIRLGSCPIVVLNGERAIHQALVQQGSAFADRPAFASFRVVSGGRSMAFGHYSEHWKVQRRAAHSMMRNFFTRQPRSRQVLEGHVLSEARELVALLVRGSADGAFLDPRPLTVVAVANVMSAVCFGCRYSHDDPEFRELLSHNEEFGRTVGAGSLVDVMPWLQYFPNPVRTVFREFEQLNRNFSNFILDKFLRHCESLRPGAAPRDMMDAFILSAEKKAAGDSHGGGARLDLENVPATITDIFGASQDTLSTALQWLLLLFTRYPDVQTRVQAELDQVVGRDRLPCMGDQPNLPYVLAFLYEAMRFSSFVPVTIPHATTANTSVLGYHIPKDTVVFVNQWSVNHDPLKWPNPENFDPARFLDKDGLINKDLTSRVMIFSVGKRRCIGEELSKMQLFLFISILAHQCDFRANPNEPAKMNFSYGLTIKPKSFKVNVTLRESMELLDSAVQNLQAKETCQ
Experimental: (§1) Baculovirus-insect cell-expressed human CYP1A1, CYP1A2, CYP1B1, CYP2A6, CYP2B6, CYP2C8, CYP2C9, CYP2C19, CYP2D6, CYP2E1, CYP3A4, CYP3A5, and CYP3A7 were purchased from BD Biosciences Discovery Labware (Woburn, MA, USA) and used according to the manufacturer’s instructions.
(§2) The kinetic assays were carried out in 100 μL volume containing 100 mM Tris-HCl buffer pH 7.4, 0–40 μM coumarin derivative or 0–10 μM 7-ethoxyresorufin, 1–25 nM recombinant CYP or 0–0.1 g/L microsomal protein, and 20% NADPH regenerating system. Incubations took place at 37 °C in 96-multiwell plates; the fluorescence was measured with a Victor[2] plate reader (PerkinElmer Life Sciences, Turku, Finland). The detailed conditions are described in the figures and tables. The reaction was started by adding NADPH, and fluorescence was measured at 2 min intervals for 40 min using excitation at 405 nm and emission at 460 nm for oxidation of coumarin derivatives[18] and excitation at 570 nm and emission at 615 nm for ethoxyresorufin or pentoxyresorufin 7-O-dealkylations. Incubations without the substrate, enzyme, or NADPH were used as blank reactions. Resorufin was used as a standard, and 3-(4-fluorophenyl)-7-hydroxycoumarin was used as the surrogate standards to calculate the amount of product formed. The linear phase of the reactions was used for calculations.
(§3) Enzyme kinetic parameters were analyzed using the nonlinear Michaelis–Menten equation v = Vmax × S/(Km + S), in which v is the rate for 7-hydroxylation of a coumarin derivative, S is its concentration, and Vmax value is the limiting rate of the reaction of 7-hydroxylation, which reached a half-maximal rate at a concentration of Km for the substrate.

[1] = system: 13 recombinant human CYP enzymes; experiment: Oxidation rates by 13 recombinant human CYP enzymes at fixed substrate concentration (Figure 2); conditions: 25 nM CYP; for CYP1 form oxidizing the substrate fastest: 10 μM coumarin derivative or 1 μM 7-ethoxy/7-pentoxyresorufin; for oxidation rate relative to oxidation of 7-pentoxyresorufin / fluorescence change and rate of the oxidation: fixed substrate concentration
Experimental: as §1, §2
To find out which CYP forms oxidize the 11 novel coumarin derivatives, we determined their oxidation rates to the corresponding 7-hydroxycoumarin metabolites by 13 recombinant human CYP enzymes at a fixed 10 μM substrate concentration (Figure 2). All except 21, 22, and 23 were oxidized faster by one or several CYP1 forms than by the other CYP forms. […] Oxidation rates of the classical CYP substrates 7-ethoxycoumarin, 7-ethoxyresorufin, and 7-pentoxyresorufin were also determined. […] Oxidation of 7-ethoxycoumarin and 7-ethoxyresorufin was 35 and 60 times faster, respectively, than oxidation of 7-pentoxyresorufin. 7-Ethoxyresorufin was oxidized by CYP1A2 and CYP1B1 at 30–40% of the rate of CYP1A1.
Figure 2 Oxidation of the coumarin derivatives and 7-ethoxy- and 7-pentoxyresorufin by 13 human CYP forms. The formation of fluorescent metabolites was determined in incubations containing a 25 nM CYP, a 20% NADPH regenerating system, and a 10 μM coumarin derivative or 1 μM 7-ethoxy/7-pentoxyresorufin in 100 mM Tris-HCl pH 7.4 in the kinetic experimental setup. […] Note the variation in Y-axis scales between subpanels.

[2] = system: human CYP1 enzymes (CYP1A1, CYP1A2, CYP1B1); experiment: Oxidation efficiency compared across all CYP1 forms (Table 1); conditions: based on Table 1
Experimental: as §1, §2, §3

CYP1A2 = target: T2, CYP1A2 (Homo sapiens, UniProt P05177); experiment: Michaelis–Menten kinetics of oxidation to fluorescent 7-hydroxy metabolite by recombinant CYP1A2; parameters: key to screening activity class: NA, no activity was observed.; LA, low screening activity at the 20 μM substrate and 25 nM CYP concentration; conditions: for Vmax: recombinant CYP1A2, surrogate standard
T2 construct: purchased BD Biosciences Discovery Labware (Woburn, MA, USA); host or cells: baculovirus-insect cells
T2 sequence (P05177 1-516): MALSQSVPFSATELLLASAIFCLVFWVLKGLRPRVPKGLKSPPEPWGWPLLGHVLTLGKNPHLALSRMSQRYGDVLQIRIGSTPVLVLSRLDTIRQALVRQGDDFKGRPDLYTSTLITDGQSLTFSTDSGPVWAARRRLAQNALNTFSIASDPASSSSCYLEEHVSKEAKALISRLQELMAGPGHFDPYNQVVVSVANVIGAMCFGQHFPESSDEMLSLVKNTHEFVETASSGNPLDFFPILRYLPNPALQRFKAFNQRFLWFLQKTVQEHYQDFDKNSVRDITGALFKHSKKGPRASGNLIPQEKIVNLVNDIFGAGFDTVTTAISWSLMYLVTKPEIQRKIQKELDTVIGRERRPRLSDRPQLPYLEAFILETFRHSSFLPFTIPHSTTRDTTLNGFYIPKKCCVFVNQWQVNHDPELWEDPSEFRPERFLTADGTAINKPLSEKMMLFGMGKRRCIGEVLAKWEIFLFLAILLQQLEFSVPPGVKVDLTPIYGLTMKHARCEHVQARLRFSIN
Experimental: as §1, §2, §3

human CYP1A1 = target: T3, human CYP1A1 (Homo sapiens, UniProt P04798); experiment: Michaelis–Menten kinetics of oxidation to fluorescent 7-hydroxy metabolite by recombinant CYP1A1; parameters: key to screening activity class: NA, no activity was observed.; LA, low screening activity at the 20 μM substrate and 25 nM CYP concentration; conditions: for Vmax: recombinant CYP1A1, surrogate standard, 95% confidence interval in brackets; for screening activity class: CYP1A1, 20 μM substrate and 25 nM CYP
T3 construct: purchased BD Biosciences Discovery Labware (Woburn, MA, USA); host or cells: baculovirus-insect cells
T3 sequence (P04798 1-512): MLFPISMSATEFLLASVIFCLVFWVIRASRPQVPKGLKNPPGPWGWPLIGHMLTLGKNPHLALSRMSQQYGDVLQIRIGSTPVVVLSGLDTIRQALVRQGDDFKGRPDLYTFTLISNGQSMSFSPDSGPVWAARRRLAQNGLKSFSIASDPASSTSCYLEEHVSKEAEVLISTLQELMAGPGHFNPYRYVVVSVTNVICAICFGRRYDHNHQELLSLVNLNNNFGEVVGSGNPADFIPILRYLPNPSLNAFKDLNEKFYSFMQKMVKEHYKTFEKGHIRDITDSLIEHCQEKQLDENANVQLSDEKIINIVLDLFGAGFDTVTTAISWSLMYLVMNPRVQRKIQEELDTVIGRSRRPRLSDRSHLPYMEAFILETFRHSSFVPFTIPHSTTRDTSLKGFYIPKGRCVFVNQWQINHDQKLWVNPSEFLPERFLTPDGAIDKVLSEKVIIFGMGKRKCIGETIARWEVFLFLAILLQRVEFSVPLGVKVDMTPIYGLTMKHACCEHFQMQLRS
Experimental: as §1, §2, §3

[3] = 95% confidence interval in brackets

Row | screening activity class (human CYP1B1) | SMILES | CYP1 form oxidizing the substrate fastest [1] | substrate efficiency compared among CYP1 enzymes [2] | fluorescence change and rate of the oxidation [1] | also measured
1 | – | CCOc1ccc2ccc(=O)oc2c1 [Compound 24, 7-ethoxycoumarin, reference compound] | oxidized faster by CYP1A1 than the other CYP1 enzymes | efficient substrates for CYP1A1 compared with CYP1A2 and CYP1B1 | – | Km (CYP1A2; human, recombinant CYP1A2 (baculovirus-insect cell-expressed), recombinant CYP1A2, 100 mM Tris-HCl pH 7.4, 37 °C, 95% confidence interval in brackets): 7.7 µM; Vmax (CYP1A2; [3]): 2.0 (1.4–2.6) mol/(min·mol CYP); oxidation rate relative to oxidation of 7-pentoxyresorufin [1]: 35 times
2 | – | CC(=O)Oc1ccc(-c2cc3cc(Cl)ccc3oc2=O)cc1 [Compound 20, 3-(4-acetoxyphenyl)-6-chlorocoumarin] | oxidized faster by CYP1A1 than CYP1A2 or CYP1B1 | efficient substrate for CYP1B1 compared with CYP1A1 and 1A2 | – | Vmax (human CYP1A1): 6.5 mol/(min·mol CYP)
3 | – | O=c1oc2ccc(O)cc2cc1-c1cccc(O)c1 [Compound 15, 3-(3-hydroxyphenyl)-6-hydroxycoumarin] | oxidized faster by CYP1A2 than CYP1A1 or CYP1B1 | efficient substrate for CYP1A2 compared with CYP1A1 and CYP1B1 | – | Vmax (human CYP1B1; recombinant CYP1B1, surrogate standard, 95% confidence interval in brackets): 0.29 mol/(min·mol CYP)
4 | LA | COc1ccc2oc(=O)c(-c3ccc(OC(F)(F)F)cc3)cc2c1 [Compound 16, 3-(4-trifluoromethoxyphenyl)-6-methoxycoumarin] | oxidized faster by CYP1A1 than CYP1A2 or CYP1B1 | oxidized with equal efficiency by CYP1A1 and CYP1A2 and weakly by CYP1B1 | – | –
5 | LA | COc1ccc2cc(-c3ccc(OC(F)(F)F)cc3)c(=O)oc2c1 [Compound 18, 3-(4-trifluoromethoxyphenyl)-7-methoxycoumarin] | oxidized faster by CYP1A2 than CYP1A1 or CYP1B1 | oxidized with equal efficiency by CYP1A1 and CYP1A2 and weakly by CYP1B1 | – | –
6 | – | CC(=O)Oc1cccc(-c2cc3cc(Cl)ccc3oc2=O)c1 [Compound 22, 3-(3-acetoxyphenyl)-6-chlorocoumarin] | oxidized faster by CYP1B1 than by CYP1A1 or CYP1A2 | – | almost equally low | screening activity class (human CYP1A1): LA; screening activity class (CYP1A2; CYP1A2, 20 μM substrate and 25 nM CYP): LA
7 | LA | Cc1ccc2oc(=O)c(-c3ccc(F)cc3)cc2c1 [Compound 21, 3-(4-fluorophenyl)-6-methylcoumarin] | oxidized faster by CYP1A2 than CYP1A1 or CYP1B1 | – | almost equally low | screening activity class (human CYP1A1): LA
8 | LA | O=c1oc2ccccc2cc1-c1cccc(O)c1 [Compound 23, 3-(3-hydroxyphenyl)coumarin] | oxidized faster by CYP1A2 than CYP1A1 or CYP1B1 | – | lowest | screening activity class (human CYP1A1): LA
9 | – | COc1ccc2oc(=O)c(-c3ccc(O)c(F)c3)cc2c1 [Compound 13, 3-(3-fluoro-4-hydroxyphenyl)-6-methoxycoumarin] | oxidized faster by CYP1A1 than CYP1A2 or CYP1B1 | efficient substrates for CYP1A1 compared with CYP1A2 and CYP1B1 | – | Vmax (human CYP1A1): 32 mol/(min·mol CYP)
10 | – | COc1cccc(-c2cc3cc(OC)ccc3oc2=O)c1 [Compound 19, 3-(3-methoxyphenyl)-6-methoxycoumarin] | oxidized faster by CYP1A1 than CYP1A2 or CYP1B1 | oxidized with equal efficiency by all CYP1 enzymes | – | –
11 | – | CCOc1ccc2nc3ccc(=O)cc-3oc2c1 [Compound 25, 7-ethoxyresorufin, reference compound] | oxidized faster by CYP1A1 than the other CYP1 enzymes | efficient substrates for CYP1A1 compared with CYP1A2 and CYP1B1 | – | oxidation rate by CYP1A2 and CYP1B1 relative to the rate of CYP1A1 ([1]; 1 μM substrate): 30–40%; oxidation rate relative to oxidation of 7-pentoxyresorufin [1]: 60 times
12 | – | CCCCCOc1ccc2nc3ccc(=O)cc-3oc2c1 [Compound 26, 7-pentoxyresorufin, reference compound] | oxidized faster by CYP1A1 than the other CYP1 enzymes | efficient substrates for CYP1A1 compared with CYP1A2 and CYP1B1 | lowest | Vmax (human CYP1A1): 1.35 mol/(min·mol CYP); Vmax (CYP1A2; [3]): 0.25 mol/(min·mol CYP)

Row | SMILES | screening activity class (human CYP1B1) | CYP1 form oxidizing the substrate fastest [1] | substrate efficiency compared among CYP1 enzymes [2] | fluorescence change and rate of the oxidation [1] | also measured
13 | COc1ccc(-c2cc3cc(OC(C)=O)ccc3oc2=O)cc1 [Compound 17, 3-(4-methoxyphenyl)-6-acetoxycoumarin] | LA | oxidized faster by CYP1A2 than CYP1A1 or CYP1B1 | – | – | –
